Assay results from PMC10523748, “Cytotoxicity, acute and sub-chronic toxicities of the leaves of Bauhinia thonningii (Schumach.) Milne-Redh. (Caesalpiniaceae)” (BMC Complementary Medicine and Therapies, 2023).
Like-named read-outs stand apart in the source and are kept apart here.

Assays:
[1] = system: reactive oxygen species (ROS) production in CCRF-CEM cells; assay: ROS production, H2DCFH-DA staining and flow cytometry; format: cell-based, human; conditions: 24 h
Description: (§1) The treated cells (1 mL; 1 × 10^6 cells) were incubated for 24 h under the standard cell culture condition. Cells were further stained for 30 min with 10 µL of staining solution ([…] or H2DCFH-DA solution for ROS evaluation) according to the manufacturer’s protocol. Using the LSRFortessa FACS analyzer (Becton–Dickinson, Heidelberg, Germany), the amount of 1 × 10^4 cells was further measured as described earlier.

[2] = system: MDA-MB-231-BCRP cells; assay: RRA cytotoxicity, MDA-MB-231-BCRP; conditions: for IC50: Homo sapiens, MDA-MB-231/BCRP, 72 h; for Degree of resistance: IC50 MDA-MB-231-BCRP versus MDA-MB-231-pcDNA
Description: (§3) The sources of the HepG2 hepatocarcinoma [27], U87MG glioblastoma cells and its resistant epidermal growth factor receptor (EGFR) transfected subline, U87MG.ΔEGFR [28], HCT116 p53^+/+ colon adenocarcinoma cells and its resistant knock-out congener, HCT116 p53^−/− [29], MDA-MB-231-pcDNA3 breast adenocarcinoma cells and its multidrug-resistant breast cancer resistance protein (BCRP)-transfected MDA-MB-231-BCRP clone 23 subline [30] have also been described. […] These culture media were used as complete media with additional 10% fetal bovine serum and 1% penicillin/streptomycin (Invitrogen, Eggenstein, Germany).
(§4) Botanicals were tested in the concentration range of 0.63–80 µg/mL, the isolated compounds at 0.78—100 µM; the treated cells were incubated for 72 h; the fluorescence was measured at the excitation wavelength of 544 nm and at the emission wavelengths of 590 nm using Infinite M2000 Pro™ plate reader (Tecan, Crailsheim, Germany).

[3] = system: CCRF-CEM leukemia cells; assay: Resazurin reduction assay (RRA) cytotoxicity, CCRF-CEM; conditions: Homo sapiens, 72 h
[4] = system: normal AML12 hepatocytes; assay: RRA cytotoxicity, normal AML12 hepatocytes; conditions: for IC50: Mus musculus, AML12, 72 h; for Selectivity index: IC50 in AML12 versus IC50 in HepG2
[5] = system: CEM/ADR5000 leukemia cells (P-gp-overexpressing); assay: RRA cytotoxicity, CEM/ADR5000; conditions: for IC50: Homo sapiens, ADR5000, 72 h; for Degree of resistance: IC50 CEM/ADR5000 versus CCRF-CEM
Description: These culture media were used as complete media with additional 10% fetal bovine serum and 1% penicillin/streptomycin (Invitrogen, Eggenstein, Germany).

[6] = system: HepG2 hepatocarcinoma cells; assay: RRA cytotoxicity, HepG2; conditions: Homo sapiens, HepG2, 72 h
Description: (§5) The sources of the HepG2 hepatocarcinoma [27], U87MG glioblastoma cells and its resistant epidermal growth factor receptor (EGFR) transfected subline, U87MG.ΔEGFR [28], HCT116 p53^+/+ colon adenocarcinoma cells and its resistant knock-out congener, HCT116 p53^−/− [29], MDA-MB-231-pcDNA3 breast adenocarcinoma cells and its multidrug-resistant breast cancer resistance protein (BCRP)-transfected MDA-MB-231-BCRP clone 23 subline [30] have also been described. To compare the activity of samples in HepG2 cells, the AML12 hepatocytes were used [31]. […] These culture media were used as complete media with additional 10% fetal bovine serum and 1% penicillin/streptomycin (Invitrogen, Eggenstein, Germany).
as §4

[7] = system: MDA-MB-231-pcDNA breast adenocarcinoma cells; assay: RRA cytotoxicity, MDA-MB-231-pcDNA; conditions: Homo sapiens, 72 h
Description: as §5, §4

[8] = system: U87MG.ΔEGFR cells; assay: RRA cytotoxicity, U87MG.ΔEGFR; conditions: for IC50: Homo sapiens, 72 h; for Degree of resistance: IC50 U87MG.ΔEGFR versus U87MG
Description: as §3, §4

[9] = system: HCT116 p53^+/+ colon adenocarcinoma cells; assay: RRA cytotoxicity, HCT116 p53^+/+; conditions: Homo sapiens, HCT-116, 72 h
Description: as §5, §4

[10] = system: HCT116 p53^−/− cells; assay: RRA cytotoxicity, HCT116 p53^−/−; conditions: for IC50: Homo sapiens, HCT-116, 72 h; for Degree of resistance: IC50 HCT116 p53^−/− versus HCT116 p53^+/+
Description: as §3, §4

[11] = system: U87MG glioblastoma cells; assay: RRA cytotoxicity, U87MG; conditions: Homo sapiens, U-87 MG, 72 h
Description: as §5, §4

[12] = system: cancer cell lines tested in the current work; set-up: method as in PMID 30703492; conditions: cited from earlier work
[13] = system: 9 tested cancer cell lines; assay: RRA cytotoxicity, whole panel of cancer cell lines; conditions: for IC50: Homo sapiens, 72 h, read-out: IC50 against all the investigated cancer cell lines
[14] = system: human hepatocellular carcinoma HuH7 cells; conditions: cited from earlier work
[15] = system: MCF-7 cells; set-up: method as in PMID 22213398; conditions: cited from earlier work
[16] = system: mitochondrial membrane potential (MMP) of CCRF-CEM cells; assay: MMP analysis, JC-1 staining and flow cytometry; format: cell-based, human; conditions: 24 h
Description: as §1

[17] = system: caspases 3/7 in CCRF-CEM cells; assay: Caspase-Glo 3/7 assay; format: cell-based, human; conditions: 6 h, versus untreated cells
Description: (§2) The amount of the treated cells was 1.5 × 10^4 cells for the caspase 3/7 assay or 3 × 10^4 cells for the caspase 8 and caspase 9 assays in 100 µL. The treated cells were then incubated for 6 h under the standard cell culture conditions as described above. Subsequently, the activity of caspases was detected by a spectrophotometry measurement of luminescence using 100 µL caspase solution from the Caspase-Glo 3/7, 8, and 9 Assay kits (Promega, Mannheim, Germany) with an Infinite M2000 ProTM plate reader (Tecan).

[18] = system: caspase 8 in CCRF-CEM cells; assay: Caspase-Glo 8 assay; format: cell-based, human; conditions: 6 h, versus untreated cells
Description: as §2

[19] = system: CCRF-CEM cells; assay: Apoptosis, annexin V/PI staining and flow cytometry; format: cell-based, human; conditions: 24 h, non-treated cells 0.4%
Description: The concentration of samples used and CCRF-CEM cells were those as reported above under the standard cell culture conditions. To detect the apoptotic cells, the fluorescein isothiocyanate (FITC)-conjugated annexin V/PI assay kit (eBioscience™ Annexin V; Invitrogen, San Diego, USA) was applied to treated cells after 24 h incubation followed by the measurements with BD Accury C6 Flow Cytometer (BD Biosciences). The assays were performed separately three times and in triplicate.

[20] = system: caspase 9 in CCRF-CEM cells; assay: Caspase-Glo 9 assay; format: cell-based, human; conditions: 6 h, versus untreated cells
Description: as §2

| melting point [°C] | SMILES | IC50 [2] [µM] | Degree of resistance [2] | IC50 [3] [µM] | IC50 [4] [µM] | IC50 [5] [µM] | Degree of resistance [5] | IC50 [6] [µM] | IC50 [7] [µM] | IC50 [8] [µM] | Degree of resistance [8] | IC50 [9] [µM] | IC50 [10] [µM] | Degree of resistance [10] | IC50 [11] [µM] | Selectivity index [4] | other results |
| --- | --- | --- | --- | --- | --- | --- | --- | --- | --- | --- | --- | --- | --- | --- | --- | --- | --- |
|  | OO [H2O2, hydrogen peroxide, reference compound] |  |  |  |  |  |  |  |  |  |  |  |  |  |  |  | ROS level ([1]; 50 µM, untreated cells 0.6%): 94.30% |
| 195 to 197 | COc1cc2oc(-c3ccc(O)c(O)c3)c(OC)c(=O)c2c(O)c1C [Compound 2, 6-C-methylquercetin-3,7-dimethyl ether] | 14.3 ± 1.12 | 1.45 | 12 ± 1.25 | > 50 | 9.11 ± 0.18 | 0.76 | 19.6 ± 1.44 | 9.84 ± 0.66 | 21.1 ± 2.4 | 0.85 | 12.3 ± 1.24 | 9.2 ± 0.45 | 0.75 | 24.8 ± 2.22 |  |  |
|  | CCC(CCC(C)C1CCC2C3CC=C4CC(OC5OC(CO)C(O)C(O)C5O)CCC4(C)C3CCC12C)C(C)C [Compound 10, 3-O-β-D-glucopyranoside of β-sitosterol] | > 50 |  | 44.3 ± 3.91 | > 50 | > 50 | > 1.13 | > 50 | > 50 | > 50 |  | > 50 | > 50 |  | > 50 |  | IC50 [12]: > 100 µM; Cytotoxic activity in the panel ([13]; 9 cancer cell lines, up to 50 µM): selectively active |
|  | O=c1c(O[C@@H]2O[C@H](CO)[C@@H](O)[C@H](O)[C@H]2O)c(-c2ccc(O)c(O)c2)oc2cc(O)cc(O)c12 [Compound 6, quercetin-3-O-β-glucopyranoside] | 12.3 ± 0.97 | 1.76 | 9.12 ± 0.59 | > 50 | 7.88 ± 0.58 | 0.90 | 21.5 ± 2.25 | 6.99 ± 0.28 | 33.5 ± 2.79 | 1.75 | 21.8 ± 2.11 | 12.5 ± 1.36 | 0.57 | 19 ± 2.01 | above 2 |  |
| 195 to 197 | COc1ccc(-c2oc3cc(O)c(C)c(O)c3c(=O)c2OC)cc1O [Compound 1, 6-C-methylquercetin-3, 4'-dimethyl ether] | 17 ± 2.05 | 1.51 | 14.2 ± 0.94 | > 50 | 10.3 ± 0.44 | 0.72 | 23.5 ± 0.59 | 11.3 ± 1.04 | 26.6 ± 1.13 | 0.98 | 21.2 ± 2.45 | 10.8 ± 1.11 | 0.51 | 27.2 ± 3.07 | > 2.13 | IC50 [13]: < 50 µM |
|  | C[C@H]1[C@H](C)CC[C@]2(C(=O)O)CC[C@]3(C)C(=CC[C@@H]4[C@@]5(C)CC[C@H](O)C(C)(C)[C@@H]5CC[C@]43C)[C@H]12 [Compound 9, ursolic acid] |  |  |  |  |  |  |  |  |  |  |  |  |  |  |  | IC50 [14]: 75 µM; IC50 ([15]; MCF-7, converted from μg/mL, read-out: IC50): 15.6 µM; IC50 ([15]; MCF-7): 7.1 µg/mL |
|  | CC(C)[C@@H]1NC(=O)[C@H](C)OC(=O)[C@@H](C(C)C)NC(=O)[C@@H](C(C)C)OC(=O)[C@H](C(C)C)NC(=O)[C@H](C)OC(=O)[C@@H](C(C)C)NC(=O)[C@@H](C(C)C)OC(=O)[C@H](C(C)C)NC(=O)[C@H](C)OC(=O)[C@@H](C(C)C)NC(=O)[C@@H](C(C)C)OC1=O [Valinomycin, valinomycin, reference compound] |  |  |  |  |  |  |  |  |  |  |  |  |  |  |  | Effect on the integrity of the MMP [16]: strongly altered the integrity of the MMP; Q1, cells with undamaged (intact) MMP ([16]; positive control, picture: at 25 (no unit), text: 2 × IC50): 38.6% |
|  | COc1cccc2c1C(=O)c1c(O)c3c(c(O)c1C2=O)C[C@@](O)(C(=O)CO)C[C@@H]3O[C@H]1C[C@H](N)[C@H](O)[C@H](C)O1 [Doxorubicin, doxorubicin, reference compound] | 0.79 ± 0.08 | 6.14 | 0.02 | > 50 | 123 ± 10.9 | 6,683.00 | 4.56 ± 0.48 | 0.13 ± 0.01 | 0.98 ± 0.07 | 3.79 |  | 1.78 ± 0.08 | 3.73 | 0.26 ± 0.03 |  |  |
|  | C[C@@H]1OC(Oc2c(-c3ccc(O)c(O)c3)oc3cc(O)cc(O)c3c2=O)[C@H](O)[C@H](O)[C@H]1O (stereo partly drawn) [Compound 5, quercetin-3-O-L-rhamnopyranoside] | 16.8 ± 1.26 | 2.32 | 8.73 ± 0.62 | > 50 | 7.21 ± 0.61 | 0.83 | 28.3 ± 1.74 | 7.24 ± 0.47 | 31.1 ± 1.85 | 1.31 | 17.9 ± 1.26 | 13.2 ± 1.14 | 0.73 | 23.7 ± 1.77 | > 1.77 |  |
| 285 to 287 | COc1c(C)c(O)c2c(=O)c(OC)c(-c3ccc(O)cc3)oc2c1C [Compound 7, 6,8-C-dimethylkaempferol 3,7-dimethyl ether] | 8.15 ± 0.73 | 4.22 | 6.61 ± 0.41 | > 50 | 2.86 ± 0.17 | 0.43 | 30.7 ± 1.86 | 1.93 ± 0.19 | 18 ± 2.21 | 0.93 | 19.5 ± 2.05 | 9.71 ± 0.76 | 0.50 | 19.3 ± 1.62 | > 1.63 |  |
| 185 to 187 | COc1cc(-c2oc3cc(OC)c(C)c(O)c3c(=O)c2OC)ccc1O [Compound 3, 6-C-methylquercetin 3,7,3'-trimethyl ether] | 13.2 ± 1.48 | 1.20 | 17.9 ± 1.67 | > 50 | 10.2 ± 0.3 | 0.57 | 23.6 ± 3.23 | 11 ± 0.58 | 19.8 ± 0.96 | 0.64 | 19.8 ± 0.78 | 17.2 ± 0.83 | 0.87 | 31 ± 2.65 |  | IC50 [13]: < 50 µM |
| 250 to 253 | COc1c(-c2ccc(O)cc2)oc2c(C)c(O)c(C)c(O)c2c1=O [Compound 8, 6,8-C-dimethylkaempferol-3-methyl ether] | 8.26 ± 0.66 | 3.53 | 3.03 ± 0.37 | > 50 | 2.42 ± 0.3 | 0.80 | 19.4 ± 2.07 | 2.34 ± 0.31 | 15.4 ± 0.64 | 1.92 | 9.59 ± 0.84 | 3.41 ± 0.35 | 0.36 | 8.01 ± 0.84 |  | Effect on the integrity of the MMP [16]: strongly altered the integrity of the MMP; Q1, cells with undamaged (intact) MMP ([16]; 2 × IC50, untreated control 92.6%): 23.0%; Increase of caspases 3/7 activity [17]: 4.41 fold; Increase of caspase 8 activity [18]: 3.63 fold; Effect on ROS production [1]: enhanced higher ROS production; ROS level ([1]; 2 × IC50, untreated cells 0.6%): 24.50%; Early apoptosis, annexin V (+)/PI (-) cells, highest proportion [19]: ≤ 67.3%; Increase of caspase 9 activity [20]: 4.22 fold |
